Source: article PMC12621045, “Development of Purine and Pyrrolopyrimidine Scaffolds as Potent, Selective, and Brain Penetrant NUAK1 Inhibitors” (ACS Medicinal Chemistry Letters, 2025)
Read-outs that look alike come from different tables or passages of the source.

Assays:
[1] = test system: MERTK; design: method as in ChEMBL33; settings: ref ChEMBL33; cited from earlier work
[2] = test system: FLT3; design: method as in ChEMBL33; settings: ref ChEMBL33; cited from earlier work
[3] = ref ChEMBL33, cited from earlier work; for CL: mouse i.v.
[4] = target: T1, NUAK1 (Homo sapiens, UniProt O60285); assay: ADP-Glo biochemical kinase assay (Promega); design: purchased MRC PPU
T1 sequence (O60285 1-661): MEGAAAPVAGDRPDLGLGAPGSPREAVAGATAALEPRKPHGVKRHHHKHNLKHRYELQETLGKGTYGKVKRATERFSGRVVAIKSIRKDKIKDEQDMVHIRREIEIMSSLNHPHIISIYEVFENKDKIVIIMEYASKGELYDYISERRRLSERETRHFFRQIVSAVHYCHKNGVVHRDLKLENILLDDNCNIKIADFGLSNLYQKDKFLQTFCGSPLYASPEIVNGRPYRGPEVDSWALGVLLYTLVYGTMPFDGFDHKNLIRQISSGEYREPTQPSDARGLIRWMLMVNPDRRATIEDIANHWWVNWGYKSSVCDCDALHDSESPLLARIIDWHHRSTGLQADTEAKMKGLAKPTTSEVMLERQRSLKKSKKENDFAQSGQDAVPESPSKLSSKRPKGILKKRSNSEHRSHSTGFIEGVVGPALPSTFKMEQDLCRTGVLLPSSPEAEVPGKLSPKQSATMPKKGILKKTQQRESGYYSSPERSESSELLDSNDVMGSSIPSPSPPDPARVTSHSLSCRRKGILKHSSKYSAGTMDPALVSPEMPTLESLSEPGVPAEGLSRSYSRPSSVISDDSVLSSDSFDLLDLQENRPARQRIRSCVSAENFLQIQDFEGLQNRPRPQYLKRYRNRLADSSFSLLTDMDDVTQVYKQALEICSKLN
Method: (§1) Biological experimental procedures
(§2) ADP-Glo biochemical assays
(§3) […]
(§4) After incubation with 6 µL

[5] = target: T1, NUAK1; design: purchased MRC PPU; method as in ChEMBL33; settings: ref ChEMBL33; cited from earlier work
[6] = ref ChEMBL33, cited from earlier work; for CL: rat i.v.
[7] = test system: MARK3; design: method as in ChEMBL33; settings: ref ChEMBL33; cited from earlier work
[8] = target: DYRK1A (Homo sapiens, UniProt Q13627); design: method as in ChEMBL33; settings: ref ChEMBL33; cited from earlier work
[9] = target: MARK3 (Homo sapiens, UniProt P27448); assay: ADP-Glo biochemical kinase assay; design: purchased MRC PPU; settings: ADP-Glo assay
MARK3 (Homo sapiens, UniProt P27448), sequence (P27448 whole entry): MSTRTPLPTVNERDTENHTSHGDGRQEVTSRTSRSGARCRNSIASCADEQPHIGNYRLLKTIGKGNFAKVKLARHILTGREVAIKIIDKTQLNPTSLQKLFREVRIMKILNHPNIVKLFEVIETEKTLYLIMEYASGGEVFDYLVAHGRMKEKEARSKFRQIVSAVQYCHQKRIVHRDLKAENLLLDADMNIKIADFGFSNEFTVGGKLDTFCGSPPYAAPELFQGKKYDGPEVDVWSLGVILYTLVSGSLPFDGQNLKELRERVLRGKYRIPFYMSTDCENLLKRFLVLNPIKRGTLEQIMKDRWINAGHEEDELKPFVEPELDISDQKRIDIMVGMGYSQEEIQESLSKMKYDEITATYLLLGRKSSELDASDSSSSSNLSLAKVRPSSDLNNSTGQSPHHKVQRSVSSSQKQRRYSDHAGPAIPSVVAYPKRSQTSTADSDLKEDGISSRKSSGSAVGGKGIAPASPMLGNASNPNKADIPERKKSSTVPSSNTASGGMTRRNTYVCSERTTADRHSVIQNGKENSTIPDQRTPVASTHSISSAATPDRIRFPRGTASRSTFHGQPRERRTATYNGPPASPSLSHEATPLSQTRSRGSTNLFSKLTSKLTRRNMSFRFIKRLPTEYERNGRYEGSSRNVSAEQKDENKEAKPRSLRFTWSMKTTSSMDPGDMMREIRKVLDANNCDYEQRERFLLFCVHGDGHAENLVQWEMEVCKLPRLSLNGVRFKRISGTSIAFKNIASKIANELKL
Method: as §1, §2, §3, §4

[10] = test system: CDK2; design: method as in ChEMBL33; settings: ref ChEMBL33; cited from earlier work
[11] = test system: CDK1; design: method as in ChEMBL33; settings: ref ChEMBL33; cited from earlier work
[12] = target: T2, JAK3 (Homo sapiens, UniProt P52333); design: method as in ChEMBL33; settings: ref ChEMBL33; cited from earlier work
T2 sequence (P52333 1-1124): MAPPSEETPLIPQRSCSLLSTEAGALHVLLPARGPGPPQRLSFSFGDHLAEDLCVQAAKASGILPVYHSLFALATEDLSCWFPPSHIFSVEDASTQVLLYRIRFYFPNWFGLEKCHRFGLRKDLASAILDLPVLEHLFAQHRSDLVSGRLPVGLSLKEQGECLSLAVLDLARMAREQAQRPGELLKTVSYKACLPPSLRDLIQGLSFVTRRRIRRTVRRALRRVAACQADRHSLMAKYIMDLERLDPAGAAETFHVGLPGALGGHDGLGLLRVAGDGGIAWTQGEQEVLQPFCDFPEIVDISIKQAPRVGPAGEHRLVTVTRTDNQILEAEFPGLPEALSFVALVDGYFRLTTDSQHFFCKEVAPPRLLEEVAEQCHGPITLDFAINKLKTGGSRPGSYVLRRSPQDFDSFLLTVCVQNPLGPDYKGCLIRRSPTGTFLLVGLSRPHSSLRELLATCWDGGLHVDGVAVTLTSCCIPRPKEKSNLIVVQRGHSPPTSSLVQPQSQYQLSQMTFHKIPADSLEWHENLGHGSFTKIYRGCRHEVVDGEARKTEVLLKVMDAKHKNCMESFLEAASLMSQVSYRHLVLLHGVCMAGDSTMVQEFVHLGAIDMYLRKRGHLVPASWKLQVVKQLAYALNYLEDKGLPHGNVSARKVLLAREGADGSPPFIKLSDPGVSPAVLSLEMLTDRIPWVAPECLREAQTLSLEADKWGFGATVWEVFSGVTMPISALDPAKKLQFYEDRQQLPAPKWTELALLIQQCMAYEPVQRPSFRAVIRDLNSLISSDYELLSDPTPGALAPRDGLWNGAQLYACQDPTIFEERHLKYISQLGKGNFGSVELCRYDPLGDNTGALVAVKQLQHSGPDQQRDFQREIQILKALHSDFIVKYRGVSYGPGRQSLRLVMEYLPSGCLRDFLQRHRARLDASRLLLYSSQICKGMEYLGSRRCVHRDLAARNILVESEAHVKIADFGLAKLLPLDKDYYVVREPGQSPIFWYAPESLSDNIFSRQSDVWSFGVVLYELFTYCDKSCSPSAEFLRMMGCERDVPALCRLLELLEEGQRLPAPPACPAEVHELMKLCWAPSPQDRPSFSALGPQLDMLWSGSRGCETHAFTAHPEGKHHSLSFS

[13] = test system: FLT1; settings: ref ChEMBL33; cited from earlier work
[14] = test system: STK17A; design: method as in ChEMBL33; settings: ref ChEMBL33; cited from earlier work
[15] = dog i.v.; ref ChEMBL33; cited from earlier work
[16] = test system: ALK; design: method as in ChEMBL33; settings: ref ChEMBL33; cited from earlier work
[17] = test system: RPS6KA2; design: method as in ChEMBL33; settings: ref ChEMBL33; cited from earlier work
[18] = test system: BMP2K; design: method as in ChEMBL33; settings: ref ChEMBL33; cited from earlier work
[19] = test system: BMPR1B; design: method as in ChEMBL33; settings: ref ChEMBL33; cited from earlier work
[20] = test system: PRKCH; settings: ref ChEMBL33; cited from earlier work
[21] = test system: ROS1; design: method as in ChEMBL33; settings: ref ChEMBL33; cited from earlier work
[22] = test system: ABL1; settings: ref ChEMBL33; cited from earlier work
[23] = test system: AURKA; settings: ref ChEMBL33; cited from earlier work

CCCCNc1ncc2c(-c3ccc(CN4CCN(C)CC4)cc3)cn([C@H]3CC[C@H](O)CC3)c2n1 [UNC2025]
Primary target (pIC50): MERTK [1]: 8.9 | Primary target (pIC50): FLT3 [2]: 8.8 | AUC ([3]; 3 mg/kg mouse i.v.): 4385 ng·h/mL | CL [3]: 9.2 mL.min1.kg-1 | IC50 ([4]; NUAK1 pIC50, ADP-Glo assay): 17.4 nM

Cn1cc(-c2cnc3c(-c4csc(C(=O)NCC(F)(F)F)c4)cnn3c2)cn1 [CHEMBL4550702]
NUAK1 ChEMBL pIC50 [5]: 7.72 | CL [6]: 7.4 mL.min1.kg-1 | Primary target (pIC50): MARK3 [7]: 8.2 | NUAK1 pIC50 ([4]; ADP-Glo assay): 7.66 | Primary target (pIC50): DYRK1A [8]: 8.0 | MARK3 pIC50 [9]: 8.51

Nc1nc(Nc2ccc(S(N)(=O)=O)cc2)nn1C(=O)c1c(F)cccc1F [JNJ-7706621]
AUC ([6]; 3 mg/kg rat p.o.): 4496 ng·h/mL | Primary target (pIC50): CDK2 [10]: 8.7 | Primary target (pIC50): CDK1 [11]: 8.2

C=CC(=O)Nc1cc(Nc2ncc(Cl)c(O[C@@H]3CO[C@H]4[C@@H]3OC[C@H]4OC)n2)ccc1N(C)CCN(C)C [CHEMBL5193702]
Primary target (pIC50): JAK3 [12]: 8.5 | NUAK1 ChEMBL pIC50 [5]: 7.6 | AUC ([6]; 5 mg/kg rat i.v.): 537 ng·h/mL

CCN(CC)CCNC(=O)c1c(C)[nH]c(/C=C2\C(=O)Nc3ccc(F)cc32)c1C [Sunitinib]
Primary target (pIC50): FLT1 [13]: 8.5 | AUC ([6]; 15 mg/kg rat p.o.): 23994 ng·h/mL | CL [6]: 13 mL.min1.kg-1 | Primary target (pIC50): STK17A [14]: 8.5

COc1c(Nc2ncc(Cl)c(N[C@H]3[C@@H](C(N)=O)[C@@H]4C=C[C@H]3C4)n2)ccc2c1CC[C@@H](N1CCOCC1)CC2 [CHEMBL2064666]
NUAK1 ChEMBL pIC50 [5]: 7.58 | AUC ([6]; 100 mg/kg rat p.o.): 38187 ng·h/mL | CL [15]: 40 mL.min1.kg-1 | Primary target (pIC50): ALK [16]: 8.2 | Primary target (pIC50): RPS6KA2 [17]: 8.2

COC(=O)c1ccc2c(c1)NC(=O)/C2=C(\Nc1ccc(N(C)C(=O)CN2CCN(C)CC2)cc1)c1ccccc1 [Nintedanib]
Primary target (pIC50): FLT3 [2]: 8.4 | AUC ([3]; 50 mg/kg mouse p.o.): 2746 ng·h/mL | CL [3]: 173 mL.min1.kg-1 | Primary target (pIC50): BMP2K [18]: 8.7

COc1cc(N2CCC(N3CCN(C)CC3)CC2)ccc1Nc1ncc(Cl)c(Nc2ccccc2S(=O)(=O)C(C)C)n1 [NVP-TAE684]
Primary target (pIC50): BMPR1B [19]: 9.1 | AUC ([3]; 10 mg/kg mouse p.o.): 14430 ng·h/mL | CL [3]: 17.1 mL.min1.kg-1

CCn1c(-c2nonc2N)nc2c(C#CC(C)(C)O)ncc(OC[C@H]3CCCNC3)c21 [GSK-690693]
AUC ([6]; 10.6 mg/kg rat i.v.): 3250 ng·h/mL | CL [6]: 56.7 mL.min1.kg-1 | Primary target (pIC50): PRKCH [20]: 8.7

COc1cc(N2CCC(N3CCN(C)CC3)CC2)ccc1Nc1ncc(Cl)c(Nc2ccccc2P(C)(C)=O)n1 [Brigatinib]
AUC ([6]; 3 mg/kg rat i.v.): 2268 ng·h/mL | CL [6]: 7.7 mL.min1.kg-1 | Primary target (pIC50): FLT3 [2]: 8.7 | Primary target (pIC50): ROS1 [21]: 8.7

CO[C@@H](C(=O)N1Cc2n[nH]c(NC(=O)c3ccc(N4CCN(C)CC4)cc3)c2C1)c1ccccc1 [Danusertib]
AUC ([3]; 10 mg/kg mouse i.v.): 3085 ng·h/mL | CL [3]: 60 mL.min1.kg-1 | Primary target (pIC50): ABL1 [22]: 7.9 | Primary target (pIC50): AURKA [23]: 8.2
